Data taken from article PMC9250534, “Synthesis and direct assay of large macrocycle diversities by combinatorial late-stage modification at picomole scale” (Nature Communications, 2022).

target: MDM2 (Homo sapiens, UniProt Q00987); test: MDM2 binding screen of Libraries 3 and 4: displacement of fluorescent probe F-M8 at 750 nM macrocycle; conditions: Panel b, Library 3: 63 scaffolds combinatorially acylated with 15 carboxylic acids at 30 picomole scale; displacement of fluorescent peptide probe; macrocycle 750 nM
Sequence (Q00987 whole entry): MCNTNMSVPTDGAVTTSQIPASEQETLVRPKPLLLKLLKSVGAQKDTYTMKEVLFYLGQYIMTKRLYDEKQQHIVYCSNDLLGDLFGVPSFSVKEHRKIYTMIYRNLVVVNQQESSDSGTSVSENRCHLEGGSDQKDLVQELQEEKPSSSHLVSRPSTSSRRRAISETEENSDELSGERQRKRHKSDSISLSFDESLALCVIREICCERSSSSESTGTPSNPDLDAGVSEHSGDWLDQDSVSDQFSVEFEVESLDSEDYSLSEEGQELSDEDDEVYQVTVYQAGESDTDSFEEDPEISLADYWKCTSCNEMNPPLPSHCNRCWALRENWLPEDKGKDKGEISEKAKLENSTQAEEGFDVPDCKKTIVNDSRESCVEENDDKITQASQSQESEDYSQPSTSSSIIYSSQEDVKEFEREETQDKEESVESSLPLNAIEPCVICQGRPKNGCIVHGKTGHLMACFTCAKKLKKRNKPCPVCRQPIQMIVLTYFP
How it was run: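 Cyclic peptide scaffolds were acylated in DMSO with carboxylic acids (20 equiv.), HBTU and DABCO for 6 h at room temperature. Reactions were quenched overnight in 100 mM Tris-Cl pH 7.4, 0.01% Tween20. The fluorescein conjugate was also competed with nutlin-3a.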

Going from `Cn1cc(C[C@@H]2NC(=O)CN(CCNC(=O)c3cccc(Oc4ccccc4)c3)C(=O)C3(CC3)CNC(=O)CCSSCCNC2=O)c2ccccc21` [X-Amcp-N-Aeg-Me-Trp + Acid 111] to `Cn1cc(C[C@@H]2NC(=O)CN(CCNC(=O)c3ccc4ccccc4c3)C(=O)C3(CC3)CNC(=O)CCSSCCNC2=O)c2ccccc21` [X-Amcp-N-Aeg-Me-Trp + Acid 107], the “fraction of fluorescent probe displaced” value falls from 0.015 to -0.002.

Going from `O=C1CN(CCNC(=O)c2cccc(Oc3ccccc3)c2)C(=O)[C@H]2CCCN(C2)C(=O)CCSSCCNC(=O)[C@H](Cc2c[nH]c3ccccc23)N1` [X-Nip-N-Aeg-Trp + Acid 111] to `Cn1cc(C[C@@H]2NC(=O)CN(CCNC(=O)c3ccc(Cl)s3)C(=O)[C@H]3CCCN(C3)C(=O)CCSSCCNC2=O)c2ccccc21` [X-Nip-N-Aeg-Me-Trp + Acid 14], the “fraction of fluorescent probe displaced” value falls from 0.015 to -0.012.

`O=C(NC[C@H]1NC(=O)[C@@H]2CN(CCO2)C(=O)CCSSCCNC(=O)[C@H](Cc2ccc3ccccc3c2)NC1=O)c1ccc(Cl)cc1` [X-Cop-D-Dap-2-Nal + Acid 25] and `O=C1CN(CCNC(=O)c2ccc(Cl)cc2)C(=O)[C@@H]2CN(CCO2)C(=O)CCSSCCNC(=O)[C@H](Cc2ccc3ccccc3c2)N1` [X-Cop-N-Aeg-2-Nal + Acid 25] are the same in “fraction of fluorescent probe displaced” value: 0.00133 for the first, 0.00133 for the second.

`Cn1cc(C[C@@H]2NC(=O)CN(CCNC(=O)/C=C/c3ccc(OCc4ccccc4)cc3)C(=O)C3(CC3)CNC(=O)CCSSCCNC2=O)c2ccccc21` [X-Amcp-N-Aeg-Me-Trp + Acid 110] and `O=C(/C=C/c1ccc(OCc2ccccc2)cc1)NCCN1CC(=O)N[C@@H](Cc2c[nH]c3cc(Cl)ccc23)C(=O)NCCSSCCC(=O)NCC2(CC2)C1=O` [X-Amcp-N-Aeg-Cl-Trp + Acid 110] are the same in “fraction of fluorescent probe displaced” value: 0.015 for the first, 0.015 for the second.

Compared with `Cn1cc(C[C@@H]2NC(=O)CN(CCNC(=O)c3ccc(Cl)cc3)C(=O)[C@@H]3CN(CCO3)C(=O)CCSSCCNC2=O)c2ccccc21` [X-Cop-N-Aeg-Me-Trp + Acid 25], `O=C(/C=C/c1ccc(Cl)cc1)NCCN1CC(=O)N[C@H](Cc2c[nH]c3ccccc23)C(=O)NCCSSCCC(=O)N2CCO[C@@H](C2)C1=O` [X-Cop-N-Aeg-D-Trp + Acid 108] is lower in “fraction of fluorescent probe displaced” value: 0.028 for the first, 0.015 for the second.

Compared with `O=C(CCS(=O)(=O)c1ccccc1)NC[C@@H]1NC(=O)[C@H]2CCCN(C2)C(=O)CCSSCCNC(=O)[C@@H](Cc2c[nH]c3ccccc23)NC1=O` [X-Nip-Dap-D-Trp + Acid 114], `O=C(CCS(=O)(=O)c1ccccc1)NC[C@H]1NC(=O)[C@H]2CCCN(C2)C(=O)CCSSCCNC(=O)[C@H](Cc2c[nH]c3ccccc23)NC1=O` [X-Nip-D-Dap-Trp + Acid 114] is lower in “fraction of fluorescent probe displaced” value: 0.00133 for the first, -0.00533 for the second.

First: O=C(/C=C/c1ccc2ccccc2c1)NC[C@@H]1NC(=O)[C@@H]2CN(CCO2)C(=O)CCSSCCNC(=O)[C@@H](Cc2c[nH]c3ccccc23)NC1=O [X-Cop-Dap-D-Trp + Acid 112]
Second: O=C(/C=C/c1ccc(OCc2ccccc2)cc1)NC[C@H]1NC(=O)[C@@H]2CN(CCO2)C(=O)CCSSCCNC(=O)[C@H](Cc2c[nH]c3ccccc23)NC1=O [X-Cop-D-Dap-Trp + Acid 110]
The “fraction of fluorescent probe displaced” value of the first is higher: 0.028 for the first, -0.00533 for the second.

First: O=C(C=Cc1ccc(Cl)cc1)NCCN1CC(=O)NC(Cc2cccc3ccccc23)C(=O)NCCSSCCC(=O)N2CCOC(C2)C1=O (stereo not shown) [X-Cop-N-Aeg-1-NaI + Acid 108]
Second: CC(Oc1cccc(Cl)c1)C(=O)NCCN1CC(=O)N[C@@H](Cc2cccc3ccccc23)C(=O)NCCSSCCC(=O)N2CCO[C@@H](C2)C1=O (stereo partly shown) [X-Cop-N-Aeg-1-NaI + Acid 113]
The “fraction of fluorescent probe displaced” value of the first is higher: 0.048 for the first, 0.008 for the second.

Compared with `CC(Oc1cccc(Cl)c1)C(=O)NCCN1CC(=O)NC(Cc2cn(C)c3ccccc23)C(=O)NCCSSCCC(=O)NCC2(CC2)C1=O` (mixture of isomers) [X-Amcp-N-Aeg-Me-Trp + Acid 113], `O=C(/C=C/c1ccc(Cl)cc1)NCCN1CC(=O)N[C@H](Cc2c[nH]c3ccccc23)C(=O)NCCSSCCC(=O)NCC2(CC2)C1=O` [X-Amcp-N-Aeg-D-Trp + Acid 108] is higher in “fraction of fluorescent probe displaced” value: 0.015 for the first, 0.035 for the second.

First: O=C(/C=C/c1ccc2ccccc2c1)NC[C@@H]1NC(=O)C2(CC2)CNC(=O)CCSSCCNC(=O)[C@@H](Cc2c[nH]c3ccccc23)NC1=O [X-Amcp-Dap-D-Trp + Acid 112]
Second: O=C1CCSSCCNC(=O)[C@@H](Cc2c[nH]c3ccccc23)NC(=O)[C@H](CNC(=O)c2ccc3ccccc3c2)NC(=O)C2(CC2)CN1 [X-Amcp-Dap-D-Trp + Acid 107]
The “fraction of fluorescent probe displaced” value of the first is lower: 0.015 for the first, 0.050 for the second.

`O=C1CCSSCCNC(=O)[C@H](Cc2cccc3ccccc23)NC(=O)[C@H](CNC(=O)c2cccc(Oc3ccccc3)c2)NC(=O)C2(CC2)CN1` [X-Amcp-Dap-1-NaI + Acid 111] and `O=C1CCSSCCNC(=O)[C@H](Cc2cccc3ccccc23)NC(=O)[C@@H](CNC(=O)c2ccc(Cl)s2)NC(=O)C2(CC2)CN1` [X-Amcp-D-Dap-1-NaI + Acid 14] are the same in “fraction of fluorescent probe displaced” value: 0.008 for the first, 0.008 for the second.

First: CN1C(=O)CN(CCNC(=O)c2ccc(Cl)s2)C(=O)C2(CC2)CNC(=O)CCSSCCNC(=O)[C@@H]1Cc1c[nH]c2ccccc12 [X-Amcp-N-Aeg-NMe-Trp + Acid 14]
Second: CN1C(=O)[C@H](CNC(=O)c2ccc(Cl)cc2)NC(=O)C2(CC2)CNC(=O)CCSSCCNC(=O)[C@@H]1Cc1c[nH]c2ccccc12 [X-Amcp-Dap-NMe-Trp + Acid 25]
The “fraction of fluorescent probe displaced” value of the first is lower: -0.012 for the first, 0.00133 for the second.

Going from `O=C1CCSSCCNC(=O)[C@H](Cc2cccc3ccccc23)NC(=O)[C@H](CNC(=O)C2COc3ccccc3O2)NC(=O)C2(CC2)CN1` (stereo partly shown) [X-Amcp-Dap-1-NaI + Acid 115] to `O=C1CCSSCCNC(=O)C(Cc2ccc3ccccc3c2)NC(=O)C(CNC(=O)C2CC2c2ccccc2)NC(=O)C2(CC2)CN1` [X-Amcp-D-Dap-2-Nal + Acid 105], the “fraction of fluorescent probe displaced” value falls from 0.00133 to -0.00844.

Compared with `CN1C(=O)[C@H](CNC(=O)c2ccc(Cl)cc2)NC(=O)[C@@H]2CN(CCO2)C(=O)CCSSCCNC(=O)[C@@H]1Cc1c[nH]c2ccccc12` [X-Cop-Dap-NMe-Trp + Acid 25], `CN1C(=O)[C@H](CNC(=O)CCS(=O)(=O)c2ccccc2)NC(=O)[C@H]2CCCN(C2)C(=O)CCSSCCNC(=O)[C@@H]1Cc1c[nH]c2ccccc12` [X-Nip-Dap-NMe-Trp + Acid 114] is higher in “fraction of fluorescent probe displaced” value: -0.00533 for the first, 0.021 for the second.

Going from `O=C(/C=C/c1ccc2ccccc2c1)NC[C@H]1NC(=O)[C@H]2CCCN(C2)C(=O)CCSSCCNC(=O)[C@H](Cc2ccc3ccccc3c2)NC1=O` [X-Nip-D-Dap-2-Nal + Acid 112] to `Cn1cc(C[C@@H]2NC(=O)[C@@H](CNC(=O)/C=C/c3ccc4ccccc4c3)NC(=O)[C@H]3CCCN(C3)C(=O)CCSSCCNC2=O)c2ccccc21` [X-Nip-D-Dap-Me-Trp + Acid 112], the “fraction of fluorescent probe displaced” value rises from 0.008 to 0.021.

Going from `O=C(/C=C/c1ccc(OCc2ccccc2)cc1)NC[C@@H]1NC(=O)C2(CC2)CNC(=O)CCSSCCNC(=O)[C@@H](Cc2c[nH]c3ccccc23)NC1=O` [X-Amcp-Dap-D-Trp + Acid 110] to `O=C(/C=C/c1ccc(OCc2ccccc2)cc1)NC[C@H]1NC(=O)C2(CC2)CNC(=O)CCSSCCNC(=O)[C@H](Cc2c[nH]c3ccccc23)NC1=O` [X-Amcp-D-Dap-Trp + Acid 110], the “fraction of fluorescent probe displaced” value rises from 0.008 to 0.015.

Going from `O=C(/C=C/c1ccc2ccccc2c1)NCCN1CC(=O)N[C@@H](Cc2ccc3ccccc3c2)C(=O)NCCSSCCC(=O)N2CCO[C@@H](C2)C1=O` [X-Cop-N-Aeg-2-Nal + Acid 112] to `O=C1CCSSCCNC(=O)C(Cc2ccc3ccccc3c2)NC(=O)CN(CCNC(=O)C2CC2c2ccccc2)C(=O)C2(CC2)CN1` (stereo not shown) [X-Amcp-N-Aeg-2-Nal + Acid 105], the “fraction of fluorescent probe displaced” value falls from 0.035 to -0.041.

Going from `O=C1CCSSCCNC(=O)[C@H](Cc2ccc3ccccc3c2)NC(=O)[C@H](CNC(=O)C2CC2c2ccccc2)NC(=O)C2(CC2)CN1` (stereo partly shown) [X-Amcp-Dap-2-Nal + Acid 105] to `O=C(CCS(=O)(=O)c1ccccc1)NC[C@H]1NC(=O)C2(CC2)CNC(=O)CCSSCCNC(=O)[C@@H](Cc2c[nH]c3ccccc23)NC1=O` [X-Amcp-D-Dap-D-Trp + Acid 114], the “fraction of fluorescent probe displaced” value rises from -0.034 to 0.008.

`O=C(/C=C/c1ccncc1)NC[C@H]1NC(=O)C2(CC2)CNC(=O)CCSSCCNC(=O)[C@H](Cc2c[nH]c3cc(Cl)ccc23)NC1=O` [X-Amcp-D-Dap-Cl-Trp + Acid 106] was tested, and the “fraction of fluorescent probe displaced” value was 0.018.

same assay, conditions: Panel c, Library 4: best nine scaffolds and 15 additional carboxylic acids; displacement of fluorescent probe

Compared with `CC(C)c1ccc(/C=C/C(=O)NC[C@@H]2NC(=O)[C@H]3CCCN(C3)C(=O)CCSSCCNC(=O)[C@H](Cc3c[nH]c4cc(Cl)ccc34)NC2=O)cc1` [X-Nip-Dap-Cl-Trp + Acid 127], `CCOc1ccc(/C=C/C(=O)NC[C@@H]2NC(=O)[C@H]3CCCN(C3)C(=O)CCSSCCNC(=O)[C@H](Cc3c[nH]c4cc(Cl)ccc34)NC2=O)cc1` [X-Nip-Dap-Cl-Trp + Acid 117] is higher in “fraction of fluorescent probe displaced” value: 0.109 for the first, 0.207 for the second.

Compared with `O=C(/C=C/c1ccc(Cl)c(Cl)c1)NC[C@@H]1NC(=O)[C@H]2CCCN(C2)C(=O)CCSSCCNC(=O)[C@H](Cc2ccc3ccccc3c2)NC1=O` [X-Nip-Dap-2-Nal + Acid 119], `O=C(/C=C/c1cccc(C(F)(F)F)c1)NC[C@@H]1NC(=O)[C@H]2CCCN(C2)C(=O)CCSSCCNC(=O)[C@H](Cc2cccc3ccccc23)NC1=O` [X-Nip-Dap-1-NaI + Acid 122] is lower in “fraction of fluorescent probe displaced” value: 0.020 for the first, 0.0035 for the second.

Going from `O=C(O)/C=C/c1ccc(Cl)c(Cl)c1` [Acid 119] to `O=C(/C=C/c1cccc(Cl)c1)NC[C@@H]1NC(=O)C2(CC2)CNC(=O)CCSSCCNC(=O)[C@H](Cc2c[nH]c3ccccc23)NC1=O` [X-Amcp-Dap-Trp + Acid 121], the “fraction of fluorescent probe displaced” value rises from 0.012 to 0.052.
